Experimental data: patent US11123328B2 (UNIVERSITY HEALTH NETWORK, priority 2017, dated 2021)
Entries after “also recorded” stand apart in the source; their conditions may differ.

What was measured:
animal hearts = assay: Optical mapping and LVDP in hearts subjected to myopathic insults, azumolene pre-treated or not (Example 3); settings: for calcium alternans ratio map values: scale 0.00 to 0.40
Protocol: FIGS. 6A and 6B are a schematic and images, respectively, of the experimental protocol of animal hearts, pre-treated or not with azumolene, subjected to myopathic insults.
The effect of azumolene was further investigated. Optical mapping and left ventricular developed pressure (LVDP) were measured at baseline and following inducement of myopathic insults to the hearts (see FIGS. 6A and 6B). […] FIGS. 8A and 8B show the occurrence of spatial dyssynchronic in untreated compared to azumolene-treated hearts.

[1] = system: Langendorff-perfused rabbit hearts; assay: Calcium alternans by optical mapping in Langendorff-perfused rabbit hearts stressed by VF (Example 1); settings: for CaAR (calcium alternans ratio) / SD of CaAR (surrogate for spatial dyssynchrony): azumolene 20 μM; for SD of CaAR (surrogate for spatial dyssynchrony): n=8
Text: The term “cardiac dyssynchrony” as used herein means improper synchronization of calcium cycling in the heart or a part thereof, including for example temporal dyssynchrony and/or spatial dyssynchrony, optionally due to calcium leak from ryanodine type 2 receptor (RyR2) channels, leading to decreased calcium uptake and/or release in the sarcoplasmic reticulum (SR). RyR2 are found primarily in cardiac muscle and are a major mediator for SR release of calcium ions. Spatio-temporal dyssynchrony of calcium alternans can be measured by calculating a calcium alternans ratio (CaAR) for temporal mechanical dyssynchrony or by measuring the standard deviation (SD) of CaAR as a surrogate for spatial mechanical dyssynchrony. CaAR can be calculated as the amplitude of a Ca peak divided by the amplitude of a following Ca peak in a calcium transient measurement such as in FIG. 5. The smallest amplitude of Ca peak is divided by the largest amplitude of Ca peak. The larger the ratio the more similar the peak sizes. A ratio of 1 indicates no calcium alternans. Ratios of less than 1, optionally 0.8, 0.7 etc are indicative of cardiac dyssynchrony. Similarly mean standard deviations in calcium alternans ratios of greater than 0.05, greater than 0.06 or greater than 0.07 etc are indicative of cardiac dyssynchrony.
Their effect on temporal calcium alternans ratio (CaAR) before and after ventricular fibrillation (VF) (as a surrogate for temporal mechanical dyssynchrony) and standard deviation (SD) of CaAR from the anterior wall of left ventricular, which is used as a surrogate for spatial mechanical dyssynchrony, were assessed. […] Simultaneous optical mapping was performed. Calcium alternans are defined as beat-to-beat variability of 10% or more in calcium transient amplitudes.

[2] = system: patients without known cardiac diseases; assay: Safety of chronic oral dantrolene: ECG, echo, Holter, stress test in patients (Example 4)
[3] = system: patients without known cardiac diseases; settings: human, in vivo
[4] = system: patients without known cardiac disease; assay: Safety of chronic oral dantrolene, 10-year experience: ECG and echocardiogram (Example 5)
Text: If more than 1 electrocardiogram and/or echocardiogram were available for any single patient, all were studied (to assess for any abnormality), but only the latest (with the longest therapy duration) was included in the analysis.

[5] = system: ventricular arrhythmia swine model; settings: previous work [4]; cited from earlier work
[6] = azumolene pretreatment, following myopathic insults, FIG. 9
[7] = both, human, in vivo, 10.9 years

## O=C1CN(/N=C/c2ncc(-c3ccc(Br)cc3)o2)C(=O)N1 [azumolene]
Animal hearts; after myopathic insults, FIG. 7
  mean calcium alternans index: untreated-hearts increased significantly compared to azumolene-treated hearts
Animal hearts; [6]
  LVDP: significantly improved
  dp/dtmax: significantly improved
Animal hearts; azumolene-treated heart at baseline, FIG. 8A
  calcium alternans ratio map values: 0.025 to 0.05
Animal hearts; azumolene-treated heart post myopathic insults, FIG. 8A
  calcium alternans ratio map values: 0.05 to 0.1
Animal hearts; post myopathic insults, FIG. 8B
  mean of standard deviation: significantly increased in the control group post myopathic insults compared to the azumolene-treated group
Animal hearts; vs untreated hearts, FIG. 8A
  spatial calcium release dyssynchrony: reduce spatial calcium release dyssynchrony
[1]
  heterogeneity in calcium alternans in response to myopathic stress: minimizes heterogenity in calcium alternans
[1]; after 1st VF
  CaAR (calcium alternans ratio): 0.97±0.02
  SD of CaAR (surrogate for spatial dyssynchrony): 0.025±0.003
[1]; after 2nd VF
  CaAR (calcium alternans ratio): 0.94±0.02
  SD of CaAR (surrogate for spatial dyssynchrony): 0.039±0.004
[1]; azumolene-treated vs untreated hearts after VF, FIG. 2
  spatial calcium release dyssynchrony (calcium release tracings): reduced spacial calcium release dyssynchrony; also recorded: spatial calcium release disordering is abrogated
[1]; post 1st VF at 6.0 Hz, FIG. 5D vs 5B
  calcium alternans in ratio maps: fewer calcium alternans

## O=C1CN(/N=C/c2ccc(-c3ccc([N+](=O)[O-])cc3)o2)C(O)=N1 [dantrolene]
[2]; chronic oral dantrolene (>3 months)
  PR: 173 ± 19 ms
[2]; during dantrolene therapy, most >5 years
  major cardiac events (life-threatening arrhythmia, sudden death, myocardial infarction): No major cardiac events
[3]
  LV size and function: normal
  arrhythmia in Holter or stress tests: No major arrhythmia
  rest of the depolarization and repolarization parameters: within normal limits
  rhythm in ECGs: sinus rhythm
[3]; po
  JTc: 304 ± 79 ms
  QRS: 98 ± 10 ms
  QRS or QTc prolongation, arrhythmia, pauses, significant cardiac events: did not have QRS or QTc prolongation, arrhythmia, pauses, or significant cardiac events
  effect on LV systolic function: No detrimental effect
  mean heart rate: 67 (±14)
[4]; [7]
  Number of patients with PR >200 ms: 1 (5) n (%)
  Number of patients with QTc >460 ms: 1 (5) n (%)
[4]; female, human, in vivo
  QTc of the patient with QTc >460 ms: 465 ms
[4]; human, in vivo
  Absolute change in average PR ± SD: 12 ± 8 (p = 0.14) ms
  Absolute change in average QRS ± SD: 4 ± 3, (p = 0.71) ms
  Absolute change in average QTc ± SD: 12 ± 17, (p = 0.27) ms
  PR of the patient with PR >200 ms: 222 ms
[4]; in vivo
  QRS or QTc prolongation: did not have QRS or QTc prolongation
  conduction and repolarization parameters: within normal limits
  dose-related QTc prolongation: No dose-related QTc prolongation
  left ventricular (LV) size and systolic function: normal
  rhythm in electrocardiograms: sinus rhythm
[4]; mean 10.9±6 years follow-up
  major cardiac events (serious arrhythmia, sudden death, or myocardial infarction): no major cardiac events
[1]
  heterogeneity in calcium alternans in response to myopathic stress: minimizes heterogenity in calcium alternans
[5]
  effect on the QT: did not affect the QT
